US20260102407A1, “TREATMENT METHODS” (priority 2020, published 2026)

Legend:
VCAM-1 = assay: Flow cytometry of VCAM-1 on IL-1β-treated HMEC-1; format: cell-based, human; settings: 30 μM, 20 ng/ml IL-1β 4 h
Protocol: Flow cytometry. HMEC-1 (at 80-90% confluency) were arrested in serum-free MCDB131 medium without EGF or hydrocortisone for 40 h, treated with 30 μM BT2 or BT3 for 4 h. The cells were incubated in serum-free medium and exposed to 20 ng/ml IL-1β with the same concentration of BT2 or BT3 for a further 4 h. The cells were washed with PBS then detached with Accutase (Stem Cell Technologies, cat. 07920). The cells were centrifuged at 300 g for 5 min and resuspended at 5×10^6 cells/ml containing BT2 or BT3. The cells were incubated with BV421-conjugated mouse anti-human CD106 (VCAM-1) (BD, cat. 744309) or BV421-conjugated mouse IgG1 (BD, cat. 562438) for 45 min at 22° C. The cells were washed with Stain Buffer and the pellet was resuspended in 0.5 ml of 1% paraformaldehyde prior to flow cytometry BD FACSCanto II.
VCAM-1^+ and VCAM-1^− cells were gated by performing flow cytometry with or without primary VCAM-1 antibody (non-specific staining), respectively. […] The gating strategy is based on fluorescence excitation off both the 488 nm laser and 405 nm laser with emission filters 670LP off 488 nm and 450/50 off 405 nm. Cells with autofluorescence or negative (blue population) had equal proportion of fluorescence in both channels and VCAM-1 positive cells (red) emit light in the 450/50 filter.

THP-1 adhesion to HMEC = assay: Endothelial-monocytic cell adhesion assay; format: cell-based, human; settings: 20 ng/ml IL-1β, calcein-labeled THP-1
Protocol: Endothelial-monocytic cell adhesion assay. HMEC (80-90% confluency) in 96-well plates were deprived of serum for 24 h and treated with compound at indicated concentrations for 1 h then incubated with IL-1β (20 ng/ml) for 4 h. Meanwhile THP-1 were labeled with 5 μM calcein (5×10^6 cells/ml, BD Bioscience) for 30 min at 37° C. followed by washing 3 times with PBS. THP-1 (2.5×10^5 cells/well) were then added for 30 min, unbound cells were washed off 3 times in PBS. Adhesion of calcein-labeled THP-1 to the endothelium layer was determined in a fluorescent plate reader at excitation 485 nm and emission 530 nm.

[1] = GLP ocular pharmacokinetics study, single intravitreal injection; format: in vivo; settings: rabbit, eye, other: intravitreal injection; rabbits; single intravitreal injection 10 μg/50 μl; read-out: ocular half-life (t1/2) (converted)
ERK phosphorylation = assay: Western blot, IL-1β-inducible ERK phosphorylation in HMEC-1; format: cell-based, human
Protocol: Western blot analysis with extracts of cells treated with […]. HMEC-1 (80-90% confluency) were arrested in serum-free MCDB131 medium (Invitrogen, MD) without any growth factor for 48 h. Cells were treated with 30 μM compound in serum-free medium for 4 h, and incubated with 20 ng/ml IL-1β (Sigma, cat. SRE3083) in serum-free medium with the same concentration of compound for up to 4 h, unless otherwise indicated. Total protein was harvested as previously described using RIPA buffer with protease inhibitors. Proteins were resolved on 4-20% (w/v) SDS-polyacrylamide gradient gels and transferred to Immobilon-P PVDF membranes. Membranes were blocked with 5% skim milk and incubated with rabbit monoclonal FosB (cat. 2251S, 1:1000, Cell Signaling, USA), rabbit monoclonal VCAM-1 (cat. 13662S, 1:1000, Cell Signaling, USA), rabbit monoclonal p44/42 MAPK (cat. 4695S, 1:1000, Cell Signaling, USA), rabbit polyclonal p38 MAPK (cat. 9212S, 1:1000, Cell Signaling, USA), rabbit polyclonal SAPK/JNK (cat. 9252S, 1:1000, Cell Signaling, USA), rabbit monoclonal phospho-SAPK/JNK (cat. 4671S, 1:1000, Cell Signaling, USA), rabbit monoclonal phospho-p38 MAPK (cat. 4511S, 1:1000, Cell Signaling, USA), or, mouse monoclonal phospho-p44/42 MAPK antibodies (cat. 9106S, 1:2000, Cell Signaling, USA) at 4° C. overnight or mouse monoclonal β-actin antibodies (cat. A5316, 1:10000, Sigma-Aldrich) antibodies at 22° C. for 1 h. Membranes were then incubated with horseradish peroxidase conjugated secondary goat anti-rabbit (cat. P0448, 1:1000, DAKO Cytomation, Denmark) or goat anti-mouse (cat. P0447, 1:1000, DAKO Cytomation, Denmark) antibodies for 1 h. Chemiluminescence was detected using the Western Lightning Chemiluminescence system and ImageQuant™ LAS 4000 biomolecular imager. Band intensity in images generated with the LAS 4000 using the same settings were quantified by NIH ImageJ.

HMEC-1 [2] = assay: Endothelial network formation assay on Matrigel; format: cell-based, human
Protocol: Endothelial network formation assay. HMEC-1 (4×10^4 cells/well) in MCDB131 containing 1% FBS and compound (1 or 3 μM) or curcumin (1-40 μM) and 50 ng/ml FGF-2 were added to 96-well plates coated overnight at 4° C. with 100 μl of growth factor-reduced reconstituted basement membrane matrix (Matrigel, cat. 354230, Corning, NY). Network formation was observed over subsequent hours and photographed under 4× or 10× objective using an Olympus CKX41 microscope.

p-p38 = assay: Western blot, IL-1β-inducible p-p38 in HMEC-1; format: cell-based, human; settings: 1-30 μM
Protocol: Western blot analysis with extracts of cells treated with IL-13. HMEC-1 (80-90% confluency) were arrested in serum-free MCDB131 medium (Invitrogen, MD) without any growth factor for 48 h. Cells were treated with 30 μM compound in serum-free medium for 4 h, and incubated with 20 ng/ml IL-1β (Sigma, cat. SRE3083) in serum-free medium with the same concentration of compound for up to 4 h, unless otherwise indicated. Total protein was harvested as previously described using RIPA buffer with protease inhibitors. Proteins were resolved on 4-20% (w/v) SDS-polyacrylamide gradient gels and transferred to Immobilon-P PVDF membranes. […] Chemiluminescence was detected using the Western Lightning Chemiluminescence system and ImageQuant™ LAS 4000 biomolecular imager. Band intensity in images generated with the LAS 4000 using the same settings were quantified by NIH ImageJ.

HMEC-1 [3] = assay: Endothelial proliferation assay using the Countess system with Trypan Blue exclusion; format: cell-based, human; settings: 5% FBS, 0.1-0.6 μM, 24 h
Protocol: Endothelial proliferation assay using the Countess system. HMEC-1 proliferation was assessed using a Countess II Automated Cell Counter (ThermoFisher Scientific). Briefly, HMEC-1 (3×10^5 cells/well) were seeded in a 12-well plate. Cells were serum-deprived for 24 h in MCDB131 medium which contained 10 ng/ml EGF and 1 μg/ml hydrocortisone then treated with compound (0.1-0.6 μM) in medium containing 5% FBS, 10 ng/ml EGF and 1 μg/ml hydrocortisone. The cells were trypsinized after 24 h, resuspended in complete medium, a 10 μl aliquot was combined with an equal volume of […], and total cell numbers and Trypan Blue-excluding cells as a proportion of total was determined using the Countess.

For CCOC(=O)Nc1ccc2c(c1)C(=O)N(CC)c1ccccc1O2 [BT2, (10-ethyl-11-oxo-10,11-dihydro-dibenzo[b,f][1,4]oxazepin-2-yl)-carbamic acid ethyl ester], the “VCAM-1 expression by flow cytometry” value (VCAM-1) was “inhibition of VCAM-1”, the “THP-1 adhesion to IL-1β-treated endothelial cells” value (THP-1 adhesion to HMEC) was “inhibited by BT2” and the half-life [1] was 79.2 h. The “IL-1β-inducible ERK phosphorylation (Western blot)” value (ERK phosphorylation; 30 μM, 20 ng/ml IL-1β up to 4 h) was “inhibited”, the “inhibition of IL-1β-inducible ERK phosphorylation, potency relative to PD98059” value (ERK phosphorylation; dose escalation 1-30 μM) was “more potently than PD98059” and the endothelial network formation (HMEC-1 [2]; 1 μM, after 4 h) was “abolished network formation”. For the same molecule, the “endothelial network (tubule) formation on Matrigel” value (HMEC-1 [2]; 3 μM, 1% FBS, 50 ng/ml FGF-2, 2, 4, 6 and 24 h) was “inhibited network formation”, the “potency relative to curcumin in network formation assay” value (HMEC-1 [2]; after 4 h) was over 40 fold and the “IL-1β-inducible p-p38” value (p-p38) was “no effect”. The “Trypan Blue incorporation (% living cells)” value (HMEC-1 [3]) was “without affecting Trypan Blue incorporation” and the “serum-inducible proliferation, total cell numbers (Countess)” value (HMEC-1 [3]) was “inhibited serum-inducible proliferation”.
